How the values were obtained:
Format in all cases: cell-based, mouse
[1] = tested on: SMN2; assay: SMN2 splicing pattern, semi-quantitative RT-PCR in SMA-like MEFs; parameters: key to SMN2 splicing pattern MEF: −: no effect; +: effective; +++: most effective
[2] = tested on: SMN2; assay: SMN2 splicing pattern, semi-quantitative RT-PCR in SMN2-NSC34 cells; parameters: key to SMN2 splicing pattern SMN2-NSC34: −: no effect; +: effective; +++: most effective
Protocol: Cell culture and chemical/dsRNA treatment. Mouse embryonic fibroblasts (MEFs) were prepared using the standard protocol. Briefly, E13.5 day embryo was isolated; the uterine deciduas were cut away, and the yolk sac was removed. The embryo was then scraped out to remove non-fibroblastic tissue, and the head severed for genotyping. Embryo body was minced in 0.25% Trypsin-EDTA and incubated for 30 min. It was then added to MEF culture media, and the cell suspension spun for ˜5 min at 1,000 rpm in the tissue culture centrifuge to pellet cells. The supernatant was aspirated off and the cell pellet immediately resuspended in 10 mL of fresh MEF culture media. The MEFs were allowed to reach confluency so the cells could be passaged for further experiments. Cultured MEFs and SMN2-NSC34 cells were maintained in Dulbecco's modified Eagle medium (Invitrogen, Carlsbad, Calif.) containing 10% heat-inactivated fetal bovine serum (Hyclone, Logan, Utah) and 1% penicillin-streptomycin (Invitrogen, Carlsbad, Calif.) and were incubated at 37° C. in a 5% CO2 humidified atmosphere. The cells were plated the day preceding treatment with each chemical and harvested at the indicated time.
Semi-quantitative PCR/RT-PCR. The genomic DNA from E13.5 SMA embryos was extracted. A specific primer pair, SMN forward 5′-[…]-3′ (SEQ ID NO:21) and SMN backward 5′-[…]-3′ (SEQ ID NO:22), was designed for recognition of both murine Smn and human SMN2. The PCR program initially started with a 95° C. denaturation for 10 min, followed by 19 to 26 cycles of 95° C./1 min. 53° C./1.5 min, 72° C./2 min to assay the linear range for both Smn and SMN2. For RT-PCR assay, total RNA was extracted at indicated time points from SMN2-NSC34 cells with sodium vanadate, TSA, and aclarubicin treatment or with an increasing amount of Stat5A1*6 transfection by using the TRizol reagent (Invitrogen, Carlsbad, Calif.). To amplify the exon7 inclusion/exclusion form of SMN2 transcripts, RT-PCR were performed using a primer set P5P6 as previously described (15). The transcript from the mouse glyceraldehyde-3-phosphate dehydrogenase (Gapdh) gene or the β-Actin gene was amplified using the primer pairs: Gapdh forward: 5′-[…]-3′ (SEQ ID NO:23), and backward: 5′-[…]-3′ (SEQ ID NO:24) (56° C.), and β-Actin forward: 5′-[…]-3′ (SEQ ID NO:25), and backward 5′-[…]-3′ (SEQ ID NO:26) (59° C.), and this allowed control of equal amounts of template. […] The gel images were digitally captured with a CCD camera and analyzed with the Alphalmager™. […] Relative total SMN2 transcript levels were determined from Stat5A1*6 transfected SMN2-NSC34 cells in a minimum of three independent experiments. Differences in ratios were determined to be significant by an independent two-tailed t-test, with *, P<0.05, **, P<0.005, ***, p<0.001.

[3] = tested on: P38 (pT180/pY182); assay: Signaling pathway screen in SMN2-NSC34 cells
[4] = tested on: Stat1 (pY701); assay: Signaling pathway screen in SMN2-NSC34 cells
[5] = tested on: Stat6 (pT641); assay: Signaling pathway screen in SMN2-NSC34 cells

Sodium vanadate
SMN2 splicing pattern MEF [1]: +++ | influence on SMN2 expression [1]: found to influence SMN2 expression | SMN2 splicing pattern SMN2-NSC34 [2]: +++ | efficiency in increasing full length SMN2 transcripts relative to the other compounds [2]: most efficient | treatment time after which the full length SMN2 expression level was enhanced [2]: 2 to 4 h | P38 (pT180/pY182) cellular response ([3]; 4 hrs): +/− | P38 (pT180/pY182) cellular response ([3]; 8 hrs): + | Stat1 (pY701) cellular response ([4]; 4 hrs): − | Stat1 (pY701) cellular response ([4]; 8 hrs): +/− | Stat6 (pT641) cellular response ([5]; 4 hrs): − | Stat6 (pT641) cellular response ([5]; 8 hrs): −
